How the values were obtained:
[1] = biological target: T1, Cytochrome P450 3A4 (Homo sapiens, UniProt P08684); experiment: Reversible competitive inhibition of human CYP3A4-mediated 1'-OH midazolam formation in human liver microsomes after 7.5 mins by nonlinear regression study; assay type: ADME
[2] = biological target: T2, CYP3A (Homo sapiens, UniProt P08684+P20815+P24462+Q9HB55); experiment: Reversible competitive inhibition of CYP3A-mediated 1'-OH midazolam formation in human liver microsomes after 7.5 mins by nonlinear regression study; assay type: ADME; details: probe midazolam (1'-OH midazolam formation)
[3] = biological target: T3, CYP3A4 (Homo sapiens, UniProt P08684); experiment: Inhibition of human CYP3A4 expressed in supersomes assessed inhibition of 1'-OH midazolam formation preincubated at 2 uM followed by addition of 20-fold diluted buffer with 20 uM MDZ by LC-MS method in presence of NADPH; assay type: ADME; details: supersomes expressing human CYP3A4, probe midazolam (20 uM; 1'-OH midazolam formation)
T3 sequence (P08684 whole entry): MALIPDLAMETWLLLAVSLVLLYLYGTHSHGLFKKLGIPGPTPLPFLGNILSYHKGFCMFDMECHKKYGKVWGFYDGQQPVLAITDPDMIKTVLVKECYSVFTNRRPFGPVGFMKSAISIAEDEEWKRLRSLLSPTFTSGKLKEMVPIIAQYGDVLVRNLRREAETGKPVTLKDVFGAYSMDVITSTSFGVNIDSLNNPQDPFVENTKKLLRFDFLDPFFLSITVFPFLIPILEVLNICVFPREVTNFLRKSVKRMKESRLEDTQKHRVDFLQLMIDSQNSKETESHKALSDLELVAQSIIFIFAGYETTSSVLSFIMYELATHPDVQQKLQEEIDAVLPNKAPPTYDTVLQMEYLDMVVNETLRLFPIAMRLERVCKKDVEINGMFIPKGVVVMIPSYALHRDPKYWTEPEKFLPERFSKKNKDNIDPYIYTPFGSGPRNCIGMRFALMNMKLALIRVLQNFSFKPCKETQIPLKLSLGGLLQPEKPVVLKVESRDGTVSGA

[4] = biological target: T1, Cytochrome P450 3A4; experiment: Inhibition of human CYP3A4 expressed in supersomes assessed inhibition of 1'-OH midazolam formation by LC-MS method; assay type: ADME
[5] = biological target: T3, CYP3A4; experiment: Ratio of IC50 for human CYP3A4 expressed in supersomes by coincubation study to IC50 for human CYP3A4 expressed in supersomes by preincubation study; details: supersomes expressing human CYP3A4, read-out: Ratio IC50
[6] = biological target: T2, CYP3A; experiment: Competitive inhibition of CYP3A in human liver microsomes; assay type: ADME
[7] = biological target: T2, CYP3A; experiment: Inhibition of CYP3A-mediated 1'-OH midazolam formation in human liver microsomes preincubated for 15 mins before substrate addition by LC-MS method; assay type: ADME; details: probe midazolam (1'-OH midazolam formation)
[8] = biological target: T4, Cytochrome P450 3A5 (Homo sapiens, UniProt P20815); experiment: Reversible competitive inhibition of human CYP3A5-mediated 1'-OH midazolam formation in human liver microsomes after 7.5 mins by nonlinear regression study; assay type: ADME
T4 sequence (P20815 whole entry): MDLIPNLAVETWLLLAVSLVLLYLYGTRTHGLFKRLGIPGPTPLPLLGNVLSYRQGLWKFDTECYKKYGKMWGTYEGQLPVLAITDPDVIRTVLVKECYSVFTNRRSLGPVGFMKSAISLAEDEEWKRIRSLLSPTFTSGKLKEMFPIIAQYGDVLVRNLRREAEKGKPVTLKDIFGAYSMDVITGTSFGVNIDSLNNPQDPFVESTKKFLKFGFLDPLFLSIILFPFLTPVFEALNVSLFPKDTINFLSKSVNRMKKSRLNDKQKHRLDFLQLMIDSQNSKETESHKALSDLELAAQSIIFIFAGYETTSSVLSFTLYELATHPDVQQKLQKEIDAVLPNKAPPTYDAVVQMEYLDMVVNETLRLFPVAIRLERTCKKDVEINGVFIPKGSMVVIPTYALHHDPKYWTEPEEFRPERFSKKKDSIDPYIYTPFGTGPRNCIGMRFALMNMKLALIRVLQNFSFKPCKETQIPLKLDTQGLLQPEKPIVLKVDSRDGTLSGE

[9] = biological target: T4, Cytochrome P450 3A5; experiment: Inhibition of human CYP3A5 expressed in supersomes assessed inhibition of 1'-OH midazolam formation by LC-MS method; assay type: ADME
[10] = biological target: T2, CYP3A; experiment: Inhibition of CYP3A-mediated 1'-OH midazolam formation in human liver microsomes after 7.5 mins by LC-MS method; assay type: ADME; details: probe midazolam (1'-OH midazolam formation)
[11] = biological target: T5, CYP3A5 (Homo sapiens, UniProt P20815); experiment: Inhibition of human CYP3A5 expressed in supersomes assessed inhibition of 1'-OH midazolam formation preincubated at 2 uM followed by addition of 20-fold diluted buffer with 20 uM MDZ by LC-MS method in presence of NADPH; assay type: ADME; details: supersomes expressing human CYP3A5, probe midazolam (20 uM; 1'-OH midazolam formation)
T5 sequence (P20815 whole entry): as above

[12] = biological target: T3, CYP3A4; experiment: Inhibition of human CYP3A4 expressed in supersomes assessed inhibition of 1'-OH midazolam formation preincubated with compound for 2.5 to 30 mins followed by addition of 20-fold diluted buffer with 20 uM MDZ by LC-MS method; assay type: ADME; details: supersomes expressing human CYP3A4, probe midazolam (20 uM; 1'-OH midazolam formation)
[13] = biological target: T4, Cytochrome P450 3A5; experiment: Inhibition of human CYP3A5 expressed in supersomes assessed inhibition of 1'-OH midazolam formation preincubated with compound before substrate addition by LC-MS method; assay type: ADME
[14] = biological target: T5, CYP3A5; experiment: Ratio of IC50 for human CYP3A5 expressed in supersomes by coincubation study to IC50 for human CYP3A5 expressed in supersomes by preincubation study; details: supersomes expressing human CYP3A5, read-out: Ratio IC50
[15] = biological target: T5, CYP3A5; experiment: Inhibition of human CYP3A5 expressed in supersomes assessed inhibition of 1'-OH midazolam formation preincubated with compound for 2.5 to 30 mins followed by addition of 20-fold diluted buffer with 20 uM MDZ by LC-MS method; assay type: ADME; details: supersomes expressing human CYP3A5, probe midazolam (20 uM; 1'-OH midazolam formation)
[16] = biological target: T1, Cytochrome P450 3A4; experiment: Inhibition of human CYP3A4 expressed in supersomes assessed inhibition of 1'-OH midazolam formation preincubated with compound before substrate addition by LC-MS method; assay type: ADME
[17] = human, recombinant enzyme, TDE = time-dependent effect

T1 sequence (P08684 whole entry): as the sequence (P08684 whole entry) above

Ki [1]: 2660 nM
Ki at 7.5 min [2]: 610 nM
inhibition at 2 µM [3]: 42%
IC50 [4]: 620 nM
inhibition (INH) [4, 17]: tde
Ki [6]: 360 nM
IC50 [7]: 740 nM
Ki [8]: 2690 nM
IC50 [9]: 630 nM
inhibition (INH) [9, 17]: tde
IC50 at 7.5 min [10]: 940 nM
inhibition at 2 µM [11]: 52%
kinact [12]: 0.005 s⁻¹
IC50 [13]: 140 nM
inhibition (INH) [13, 17]: tde
kinact [15]: 0.0035 s⁻¹
IC50 [16]: 120 nM
inhibition (INH) [16, 17]: tde
Compound: C=CC[C@@H]1/C=C(\C)C[C@H](C)C[C@H](OC)[C@H]2O[C@@](O)(C(=O)C(=O)N3CCCC[C@H]3C(=O)O[C@H](/C(C)=C/[C@@H]3CC[C@@H](O)[C@H](OC)C3)[C@H](C)[C@@H](O)CC1=O)[C@H](C)C[C@@H]2OC [TACROLIMUS ANHYDROUS]
IC50 shift [5]: 5
IC50 shift [14]: 5
